Measurements: patent publication US9901553B2, “Method of modulating the activity of a nucleic acid molecule” (DUKE UNIVERSITY, priority 2007, dated 2018)
Entries after “also recorded” stand apart in the source; their conditions may differ. Blank lines part the entries; values can stand above or below the molecule they belong to. Positions of bridges follow the written chain, without caps; N, C: chain ends. Non-standard residues stand in square brackets, D forms with d. Residues, ends and D or L forms follow the SMILES beside them. [invdT] = inverted (3'-3') thymidine; hArg = N=C(N)NCCCC[C@H](N)C(=O)O; Mpa = O=C(O)CCS

Assays:
[1] = target: human factor IXa (Homo sapiens, UniProt P00740); test: APTT clotting assay: anticoagulant activity of factor IXa aptamer; details: FIG. 5B
Sequence of human factor IXa (P00740 227-461 limits assumed): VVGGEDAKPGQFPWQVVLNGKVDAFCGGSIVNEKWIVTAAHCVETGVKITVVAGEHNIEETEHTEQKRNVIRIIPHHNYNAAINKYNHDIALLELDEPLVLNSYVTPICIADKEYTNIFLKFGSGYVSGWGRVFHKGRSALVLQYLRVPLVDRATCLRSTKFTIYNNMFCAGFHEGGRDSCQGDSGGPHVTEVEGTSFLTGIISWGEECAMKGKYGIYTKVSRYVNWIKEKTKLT
Sequence of human factor IXa (P00740 47-191 limits assumed): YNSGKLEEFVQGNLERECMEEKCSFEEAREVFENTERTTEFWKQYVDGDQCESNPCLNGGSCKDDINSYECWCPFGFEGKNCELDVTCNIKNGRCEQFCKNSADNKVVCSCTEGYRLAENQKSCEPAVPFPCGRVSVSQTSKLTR

[2] = system: human plasma; test: APTT clotting time with antidote alone (no aptamer); assay type: biochemical
[3] = system: aptamer 9.3t; test: APTT clotting assay: antidote reversal of factor IXa aptamer in human plasma; details: for reversal of factor IXa aptamer (9.3t / Ch-9.3t) anticoagulant activity: antidote 2.5 μg (per 160 μl), human plasma
[4] = system: Aptamer Ch-9.3t; test: Isothermal titration calorimetry (Example V, Table 3); assay type: binding; details: ITC, 298K, PBS
[5] = system: aptamer 9.3t; test: Isothermal titration calorimetry, two-sites binding model (Table 5); details: for K1: first stage binding; for affinity for aptamer 9.3t (in words): two-site model
[6] = in vivo; cited from earlier work
[7] = system: aptamers 9.3t and 11F7T; test: APTT clotting assay: reversal of both aptamers simultaneously; assay type: biochemical, human; details: protamine 2.5 μg per 160 μl
Procedure: All reactions were performed in triplicate.

[8] = system: aptamer 11F7T; test: APTT clotting assay: antidote reversal of factor Xa aptamer in human plasma; details: for reversal of factor Xa aptamer (11F7T) anticoagulant activity: antidote 2.5 μg (per 160 μl), human plasma
[9] = in vivo; cited from earlier work; remark: listed apart in the source
[10] = system: Factor IXa aptamer (Ch-9.3t); test: Swine systemic anticoagulation, ACT: antidote reversal; assay type: in vivo; details: protamine 10 mg/kg; for reversal of aptamer anticoagulation (ACT): 30 minutes post aptamer
[11] = in vivo; cited from earlier work; remark: listed apart in the source
[12] = target: T1, VWF (Homo sapiens, UniProt P04275); test: PFA-100 platelet function assay: antiplatelet activity of VWF aptamers; assay type: cell-based; details: whole blood
T1 construct: from tissue; host or cells: normal human whole blood
T1 sequence (P04275 23-2813): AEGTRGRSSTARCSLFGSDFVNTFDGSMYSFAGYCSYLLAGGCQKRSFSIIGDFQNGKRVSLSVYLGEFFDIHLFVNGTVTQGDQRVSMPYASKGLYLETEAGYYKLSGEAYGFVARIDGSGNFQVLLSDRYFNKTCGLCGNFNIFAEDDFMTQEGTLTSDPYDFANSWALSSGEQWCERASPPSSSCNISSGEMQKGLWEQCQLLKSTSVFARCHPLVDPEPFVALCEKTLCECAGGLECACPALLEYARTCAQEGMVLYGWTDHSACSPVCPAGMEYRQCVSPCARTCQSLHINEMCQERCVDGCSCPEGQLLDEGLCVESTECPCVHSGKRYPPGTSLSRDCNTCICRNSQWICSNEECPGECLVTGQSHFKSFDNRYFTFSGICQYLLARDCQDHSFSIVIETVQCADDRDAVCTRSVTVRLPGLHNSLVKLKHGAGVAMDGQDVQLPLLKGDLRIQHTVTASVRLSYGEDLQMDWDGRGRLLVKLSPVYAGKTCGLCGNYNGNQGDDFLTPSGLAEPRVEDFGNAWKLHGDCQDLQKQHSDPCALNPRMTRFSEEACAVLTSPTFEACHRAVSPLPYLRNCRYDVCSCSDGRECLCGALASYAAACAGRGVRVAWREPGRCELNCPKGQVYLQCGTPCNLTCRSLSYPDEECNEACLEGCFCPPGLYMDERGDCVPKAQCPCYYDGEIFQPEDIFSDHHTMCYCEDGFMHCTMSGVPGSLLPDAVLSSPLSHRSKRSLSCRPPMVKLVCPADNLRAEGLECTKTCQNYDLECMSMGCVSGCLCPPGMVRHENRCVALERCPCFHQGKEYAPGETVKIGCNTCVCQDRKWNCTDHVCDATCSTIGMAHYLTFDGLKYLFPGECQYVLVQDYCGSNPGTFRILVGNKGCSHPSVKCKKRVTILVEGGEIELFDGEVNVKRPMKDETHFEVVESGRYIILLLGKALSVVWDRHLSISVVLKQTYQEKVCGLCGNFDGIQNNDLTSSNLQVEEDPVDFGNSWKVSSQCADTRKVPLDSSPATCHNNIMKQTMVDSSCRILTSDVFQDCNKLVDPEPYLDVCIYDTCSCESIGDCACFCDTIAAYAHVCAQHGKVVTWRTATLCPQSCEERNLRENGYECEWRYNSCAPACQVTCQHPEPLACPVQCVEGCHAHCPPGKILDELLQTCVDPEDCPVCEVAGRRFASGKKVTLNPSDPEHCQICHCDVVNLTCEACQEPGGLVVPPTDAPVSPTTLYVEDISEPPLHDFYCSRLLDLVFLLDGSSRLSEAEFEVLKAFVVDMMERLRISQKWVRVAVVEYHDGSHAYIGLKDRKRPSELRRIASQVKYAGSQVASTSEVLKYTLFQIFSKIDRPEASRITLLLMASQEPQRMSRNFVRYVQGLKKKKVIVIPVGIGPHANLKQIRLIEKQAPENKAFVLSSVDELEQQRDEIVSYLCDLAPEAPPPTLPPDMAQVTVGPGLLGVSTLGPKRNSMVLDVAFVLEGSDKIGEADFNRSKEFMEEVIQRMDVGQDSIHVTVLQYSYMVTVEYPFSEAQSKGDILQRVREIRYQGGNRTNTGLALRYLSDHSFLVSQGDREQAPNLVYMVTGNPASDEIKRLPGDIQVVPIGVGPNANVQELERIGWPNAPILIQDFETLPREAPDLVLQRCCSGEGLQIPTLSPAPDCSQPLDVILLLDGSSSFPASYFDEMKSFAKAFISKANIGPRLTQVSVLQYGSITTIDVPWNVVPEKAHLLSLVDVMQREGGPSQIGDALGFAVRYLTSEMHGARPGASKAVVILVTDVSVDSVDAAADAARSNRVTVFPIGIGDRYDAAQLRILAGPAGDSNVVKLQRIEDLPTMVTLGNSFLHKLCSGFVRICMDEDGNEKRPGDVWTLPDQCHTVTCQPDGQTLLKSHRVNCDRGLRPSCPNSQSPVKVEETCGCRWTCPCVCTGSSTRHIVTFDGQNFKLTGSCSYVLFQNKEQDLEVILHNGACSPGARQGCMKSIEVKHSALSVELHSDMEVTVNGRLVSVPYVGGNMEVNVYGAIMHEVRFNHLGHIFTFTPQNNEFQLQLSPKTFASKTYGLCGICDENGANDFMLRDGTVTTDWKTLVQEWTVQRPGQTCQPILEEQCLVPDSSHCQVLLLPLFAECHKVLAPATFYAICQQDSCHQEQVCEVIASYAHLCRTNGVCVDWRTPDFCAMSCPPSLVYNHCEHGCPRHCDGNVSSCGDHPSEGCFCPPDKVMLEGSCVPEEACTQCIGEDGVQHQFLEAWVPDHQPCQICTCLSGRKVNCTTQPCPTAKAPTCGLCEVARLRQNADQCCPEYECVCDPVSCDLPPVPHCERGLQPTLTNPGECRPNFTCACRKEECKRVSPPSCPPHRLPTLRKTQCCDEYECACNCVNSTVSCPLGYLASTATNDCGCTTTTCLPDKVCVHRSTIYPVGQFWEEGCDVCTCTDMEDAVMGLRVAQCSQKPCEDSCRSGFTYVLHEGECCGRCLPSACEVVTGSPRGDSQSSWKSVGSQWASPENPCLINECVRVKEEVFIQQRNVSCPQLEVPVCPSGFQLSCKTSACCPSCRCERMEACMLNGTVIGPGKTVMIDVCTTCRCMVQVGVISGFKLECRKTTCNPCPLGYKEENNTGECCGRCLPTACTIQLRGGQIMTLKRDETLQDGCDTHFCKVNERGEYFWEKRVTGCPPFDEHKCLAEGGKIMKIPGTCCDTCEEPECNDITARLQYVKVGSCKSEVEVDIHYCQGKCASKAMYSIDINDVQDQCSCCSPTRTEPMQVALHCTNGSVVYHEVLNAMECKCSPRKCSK
Procedure: The Platelet Function Analyzer, PFA-100 (Dade Behring, Deerfield, Ill.), measures platelet function in terms of clot formation time. In this assay, collagen/ADP cartridges were used to activate the platelets. 800 μl of whole blood was mixed with aptamer in platelet binding buffer (40 μl) (150 mM NaCl; 20 mM Hepes pH:7.4; 5 mM KCl; 1 mM MgCl2 and 1 mM CaCl2) and incubated for 5 min at room temperature. Antidote molecule or platelet buffer (40 μl) was than added and incubated for 5 min at room temperature. This mixture was then added to a collagen/ADP cartridge and tested for its closing time (Harrison, Blood Rev. 19:111 (2005)). The maximum closing time of the PFA-100 is 300 seconds. Data is shown as the change in closing time. All reactions were performed in triplicate.

[13] = 9.3t-Bi 150 nM + antidote 2.5 ug/well
[14] = protamine 2.5 μg, aptamer 150 nM

Molecule: 9.3t: factor IXa aptamer, 37 nt 2′fluoropyrimidine modified ssRNA, no carrier (SEQ ID NO: 1) (AUGGGGACUAUACCGCGUAAUGCUGCCUCCCCAUU; 2'-fluoro at CU, RNA at AG, 3' [invdT], backbone not given here)
anticoagulant activity (in words) [1]: potent anticoagulant

Binding constant [4]: 8800 M⁻¹
K1 [5]: 1.63e+06 M⁻¹
K2 ([5]; second stage binding): 126000 M⁻¹
affinity for aptamer 9.3t (in words) [5]: orders of magnitude lower
Molecule: NCCCNCCCCNCCCN [Spermine]
APTT clotting time ([2]; antidote 1.3 ug/well): 63.8 s
APTT clotting time ([3]; 9.3t-Bi 150 nM + antidote 1.3 ug/well): 72.7 s
Comments: reversal over antidote range ([3]; 9.3t-Bi 150 nM, antidote 1.3 ug/well-10 ug/well): Did not work b/w 1.3 ug/well-10 ug/well
affinity with aptamer 9.3t (in words) [4]: No significant binding

Molecule: N=C(N)NCCCC[C@@H]1NC(=O)CCSSC[C@@H](C(N)=O)NC(=O)[C@@H]2CCCN2C(=O)[C@H](Cc2c[nH]c3ccccc23)NC(=O)[C@H](CC(=O)O)NC(=O)CNC1=O [eptifibatide] ([Mpa][hArg]GDWPC-NH2; disulfide 1-7)
time for clearance of the compound [6]: 2 to 4 h

Molecule: NCCCCNCCCN [spermidine, Spermidine]
affinity with aptamer 9.3t (in words) [4]: No significant binding

K1 [5]: 3.09e+07 M⁻¹
affinity for aptamer 9.3t (in words) [5]: significant and similar affinities
Molecule: Protamine
duration of simultaneous reversal [7]: maintained for at least an hour
reversal of both aptamers' activity simultaneously [7]: reverses
reversal of both aptamers' activity simultaneously ([7]; listed as protamine): reverse the anticoagulant activity of the two aptamers simultaneously
reversal of factor Xa aptamer (11F7T) anticoagulant activity ([8]; aptamer 250 nM): reverses
reversal of factor Xa aptamer (11F7T) anticoagulant activity ([8]; aptamer 250 nM, listed as protamine): totally reverse
duration of reversal in vitro (APTT) ([8]; protamine): at least 60 minutes
time after protamine administration to total reversal ([8]; protamine 2.5 μg, aptamer 250 nM): ≤ 5 min
APTT clotting time ([2]; antidote 2.5 ug/well): 24 s
protamine concentration for total reversal relative to that routinely used to reverse heparin's anticoagulant activity ([3]; 2.5 μg protamine, both aptamers 9.3t and 11F7T, lower): 2 fold
APTT clotting time [3, 13]: 30.3 s
Reversal [3, 13]: Yes
reversal of factor IXa aptamer (9.3t / Ch-9.3t) anticoagulant activity ([3]; aptamer 150 nM): reverses
reversal of factor IXa aptamer (9.3t / Ch-9.3t) anticoagulant activity ([3]; aptamer 150 nM, listed as protamine): returned the clotting time to normal; also recorded: totally reverse
duration of reversal in vitro (APTT) ([3]; protamine): at least 60 minutes
duration of reversal [3, 14]: maintained for at least an hour
time after protamine addition to return of clotting time to normal [3, 14]: ≤ 5 min
side effects of administration [9]: associated with several side effects
time to return of ACT to baseline / reversal [10]: within five minutes
reversal of aptamer anticoagulation (ACT) [10]: reverses
reversal of aptamer anticoagulation (ACT) ([10]; listed as protamine): total reversal; also recorded: complete reversal
duration of reversal ([10]; Example IV): at least one hour
duration of reversal (remainder of the experiment) ([10]; Example VI): 60 min

Molecule: β-cyclodextrin-containing polycation (imidazole-containing variant) [CDP-Im]
safety profile [11]: favorable safety profile

B1: VWF aptamer 9.14: Von Willebrand factor aptamer (SEQ ID NO: 3) (nucleic acid)
chain: GGGAGGACGAUGCGGUGGACGAACUGCCCUCAGCUACUUUCAUGUUGCUGACGCACAGACGACUCGCUGAGGAUCCGAGA
modifications: listed as RNA, chemistry not given here
inhibition of platelet function [12]: can inhibit platelet function

B2: VWF aptamer 9.3: Von Willebrand factor aptamer (SEQ ID NO: 5) (nucleic acid)
chain: GGGAGGACGAUGCGGAUCGCGCUCUCCUGCUUAAGCAGCUAUCAAAUAGCCCACUCAGACGACUCGCUGAGGAUCCGAGA
modifications: listed as RNA, chemistry not given here
inhibition of platelet function [12]: can inhibit platelet function
